The test system of one assay is CHIR-expanded EBs. Briefly: Differentiation of CHIR-expanded EBs on Matrigel (IHC, RT-qPCR at day 10). The note with it: DAPT added. It is filed as cell-based, mouse. The protocol:
Embryoid body (EB) differentiation: To induce differentiation, EBs were dissociated into smaller clumps by a 5-7-minute treatment with cold 0.25% Trypsin (Gibco), followed by trituration. Trypsin was neutralized with 1:1 addition of Trypsin inhibitor (Sigma-Aldrich) and cells were pelleted by centrifugation at 1000RPM. Cell pellets were resuspended in N2/B27 medium (without growth factors) and plated onto a Matrigel precoated plate. In our experience, the single cell suspension of 100-150 EBs provided enough cells to seed one 24-well plate. […] At the end of 10 days, multiple neural processes can be visualized by phase contrast microscopy and cultures were either fixed with 4% PFA for immunohistochemistry or lysed to extract RNA in RLT buffer (Qiagen). […] CHIR withdrawal), or DAPT, a pro-differentiation agent (Crawford and Roelink, 2007) (FIG. 7J). […] This strategy was successful at restoring almost all dI identities in cultures taken from EBs both at the earliest passage and at the latest passage assessed (passage 7;

A further assay deals with Wnt/β-catenin signaling. Briefly: Inhibition of Wnt/β-catenin signaling during dI differentiation (IHC and RT-qPCR at day 9). In kind it is cell-based, mouse. The method, then: (§1) The mouse ESC line, MM13, was routinely maintained in ES cell media (DMEM+20% FBS) with 100u/ml of mouse leukocyte inducing factor (LIF). […] To prepare cells for the differentiation, ESC colonies were dissociated with 0.25% trypsin and plated on gelatin coated plates at 1:10 dilution to reduce MEF transfer. Cells cultured on gelatin coated plates and allowed to proliferate for 1-2 days. To initiate differentiation, cells were plated on 0.1% gelatin coated 24-well CellBIND dishes (Corning) at 20,000 cells/ml density in 0.5 ml/well N2/B27 medium that contains 10 ng/ml basic fibroblast growth factor (bFGF). The N2/B27 medium contains 1:1 portions of Advanced Dulbecco's modified Eagle Media (DMEM) F12 (Hyclone) and Neurobasal media (Thermo Fisher Scientific) supplemented with 0.5×N2, 1×B27 supplement (with Vitamin A), 2 mM L-glutamine, 0.1 mM 2-mercaptoethanol (ME), and 1% BSA. On day 1, small colonies of cells can be observed attached to the bottom of the wells. On day 2, cells were supplemented with 10 ng/ml bFGF and 5 μM CHIR99021 for 24 hours to induce a neuromesodermal identity (Gouti et al., 2014). On day 3, media was changed as follows: for protocol 1, cells were exposed to 100 nM RA for 48 hrs. For protocol 2, 10 ng/ml human recombinant BMP4 (Thermo Fisher Scientific) was added concomitantly with 100 nM RA (RA+BMP4) for 48 hrs. For protocol 3, cells were exposed to 100 nM RA for 24 hrs, followed by a pulse of RA+BMP4 for another 24 hours. To induce terminal differentiation in all three conditions, the medium containing growth factors was replaced with basic N2/B27 medium at day 5, and cell allowed to differentiate to day 9. At the end of the differentiation, the cultures were fixed for immunohistochemical analysis or lysed to obtain RNA for RNA-Seq or quantitative reverse transcriptase PCR analysis.
Immunohistochemistry: For 2d differentiations, adherent cultures were first washed with 1×PBS and fixed with fresh cold 4% PFA for 10 minutes in the well. Following fixation, cultures were washed twice with 1×PBS to remove any remaining PFA. Cells were blocked with 1×PBS with 1% heat inactivated horse serum for 1 hour and primary antibodies are added in the blocking solution for an overnight incubation at 4C. Following washes, species appropriate secondary antibodies (Jackson Immuno Research Laboratories) were added in 1× PBT (PBS+0.1% […]) for 1 hr. The cultures were then washed with 1× PBT to remove traces of secondary antibodies and counterstained with DAPI to stain nuclei. Plates were then imaged on Zeiss LSM800 inverted confocal microscope at 10× magnification.
(§2) Quantitative (a) RT-PCR analysis: RNA was isolated with RNeasy Mini Kit (Qiagen, cat no. 74104), and converted to cDNA using Superscript IV First Strand Synthesis kit (Thermo Fisher Scientific). qRT-PCR was performed using SYBR Green PCR Master Mix (Applied Biosystems) on Roche 480 Lightcycler (Roche). The relative fold expression was calculated using 2-AACt method of comparing the expression of the target gene with that of the housekeeping gene glyceraldehyde 3-phosphate dehydrogenase (Gapdh). All experiments were repeated at least 2-3 times (technical replicates) from at least two independent differentiations (biological replicates), and data is represented as mean±SEM.
To assess the role of canonical Wnt signaling in dI fate specification, we added endo-IWR1 (IWR1e), a small molecule inhibitor which blocks p-catenin function (Chen et al., 2009) to dPs from day 4-6 (FIG. 5A). By day 9, the RA+BMP4 condition robustly induces dlis-dI3s (FIG. 5F-51, 5N-5P).
On the technique in general: Real-time PCR tracks product formation cycle by cycle.

Another assay deals with hESCs. The note with it: added to the cell dissociation media (Watanabe et al., 2007, Pettinato et al., 2015); cited from earlier work.
The test system of another assay is mESCs. Description: NMP induction from mESCs with bFGF and CHIR (Sox2/T expression). It is filed as cell-based, mouse. The note with it: day 2 (48 hr bFGF alone) / day 3 (further 24 hr bFGF and CHIR). The protocol: as §1, with “For protocol 2, 10 ng/ml human recombinant BMP4 (Thermo Fisher Scientific) was added concomitantly with 100 nM RA (RA+BMP4) for 48 hrs. For protocol 3, cells were exposed to 100 nM RA for 24 hrs, followed by a pulse of RA+BMP4 for another 24 hours. To induce terminal differentiation in all three conditions, the medium containing growth factors was replaced with basic N2/B27 medium at day 5, and cell allowed to differentiate to day 9.” left out, “analysis. […]” for “analysis.”

The subject of assay [1] is mESCs-derived NMPs / NPCs. Description: Bulk RNA-Seq differential expression and qRT-PCR after RA or RA+BMP4 treatment. It is filed as cell-based, mouse. The method, then: Bulk-RNA sequencing and data processing: Total cell lysate was obtained in buffer RLT (Qiagen) at different time points from three independent differentiations (biological replicates) conducted parallelly. RNA extraction was performed using RNeasy mini kit (Qiagen) and the quality was determined using Agilent Technologies 2100 Bioanalyzer and only samples with a RIN score >8.0 were sequenced. Stranded libraries were constructed using Universal plus mRNA sequencing kit (NuGEN) and sequenced onto 2 lanes of NovaseqS1 to generate 30 million reads/sample. Obtained reads were aligned to the latest mouse reference genome (mm10) using the STAR spliced read aligner. Pearson correlation and principal component analysis (PCA) was performed to determine the similarities among the samples and replicates. Differentially expressed genes were identified using DESeq and EdgeR package on R platform. The candidate genes were selected using cutoff false discovery rate (FDR <0.05) and log fold change (>2). Differentially expressed gene lists were further subjected to Enrichr, Metascape (Zhou et al., 2019) and DAVID functional annotation tools to identify enriched gene ontology (GO) categories.
as §2
We took advantage of the directed differentiation protocols to investigate the unresolved mechanisms by which RA and BMP direct dI fate specification. To further validate the use of a stem cell model, we first assessed the genetic basis of the fate decisions mediated by RA signaling. During the 24 hr pulse of RA at day 3, Pax3 levels gradually increase, while T expression concomitantly declines (FIG. 12A). […] To identify the transcriptional changes occurring during this first commitment step, we performed bulk RNA-Seq at day 3 (NMP state), day 3.25 (early transcriptional response to RA) and day 4 (dP state1) (FIG. 11B).
We hypothesized that the addition of BMP4 to NPCs in dP state1, directs them to a more dorsal dP state, i.e. dP state2 (FIG. 11A). To define the transcriptional changes occurring after BMP4 addition, we performed bulk RNA-Seq at day 4 (dP state1), day 4.25 (early transcriptional response to RA+BMP4) and at day 5 (dP state2) (FIG. 4A). […] 78 genes, out of 411, were common between both time points (FIGS. 4B, 13B). Focusing on these common genes, we identified enriched functional processes using GO analyses. The GO terms included the BMP signaling pathway (FIG. 4C, Table 3), confirming that the analysis identified BMP responsive genes.

Another assay concerns Wnt-signaling genes. Briefly: RT-qPCR of selected Wnt genes at day 5 (RA±BMP4, Noggin). In kind it is cell-based, mouse. The protocol:
as §2
Additionally, we also found enriched GO terms related to Wnt signaling across three functional categories (FIG. 4C). […] (FIGS. 4D, 4E, 12B). Selected Wnt-signaling genes were further assessed in a qPCR analysis of day 5 NMPs to validate whether they are BMP4-responsive.

Setting [2] is: inhibitor added to RA+BMP4 (protocol 3) from day 4, 48 hours, day 9.

“Also recorded” adds a separate entry of the source.

On to `C[C@H](NC(=O)Cc1cc(F)cc(F)c1)C(=O)N[C@H](C(=O)OC(C)(C)C)c1ccccc1` [DAPT], for which the “Tuj1+ neurites” value with CHIR-expanded EBs (day 10, IHC) is on record as “increased sprouting of Tuj^+ neurites; also recorded: modest effect increasing the number of Tuj1+neurites”. The “NeuN and Tubb3 expression compared to DMSO” value in the assay on CHIR-expanded EBs (day 10, RT-qPCR) is “did not significantly augment NeuN and Tubb3 expression”.
Turning to `Oc1nc(-c2ccc(C(F)(F)F)cc2)nc2c1CSCC2` [XAV939], in the assay with Wnt/β-catenin signaling (setting [2]), the “dI1 and dI2 differentiation” value is given as “most strongly suppresses the differentiation of the BMP4-dependent dI1/dI2s”; the dI3 differentiation entry is reported as “more modest effect on dI3s”; the “dI4, dI5, dI6 fates” value is “increase in the expression of dI4-dI6 specific genes”. Also, the “dP markers Pax3, Pax7, Olig3” value in the assay with Wnt/β-catenin signaling (inhibitor added to RA+BMP4 condition) was “prevents both the suppression of Pax7+dPs and induction of Olig3+dPs”.
Regarding `C[C@@H](N)[C@H]1CC[C@H](C(=O)Nc2ccncc2)CC1` [Y-27632], the “apoptosis upon dissociation and EB formation” value with hESCs is “significantly inhibit apoptosis and enhance the EB formation”.
Regarding “bFGF: human basic fibroblast growth factor”, the “Expression of Sox2 and T” value in the assay with mESCs is listed as “upregulate Sox2 but not T”.

B1: BMP4: human recombinant bone morphogenetic protein 4 (protein, UniProt P12644 293-408, looked up)
Bone morphogenetic protein 4: SPKHHSQRARKKNKNCRRHSLYVDFSDVGWNDWIVAPPGYQAFYCHGDCPFPLADHLNSTNHAIVQTLVNSVNSSIPKACCVPTELSAISMLYLDEYDKVVLKNYQEMVVEGCGCR
Take B1: the “upregulated genes common between both time points” value in assay [1] (6 hrs and 24 hrs of BMP4+RA treatment) was 78 genes. Further, the genes upregulated in assay [1] (6 hrs of BMP4 addition (day 4.25) vs day 4) stood at 106 genes; in assay [1] (24 hrs of BMP4 exposure (day 5) vs day 4) it was 305 genes. Moreover, the “expression of selected Wnt-signaling genes” value with Wnt-signaling genes (day 5, addition of BMP4 compared to RA alone) is “expression of all genes tested significantly increased”.

B2: Noggin: a BMP signaling inhibitor (protein, UniProt Q13253 28-232, looked up)
Noggin: QHYLHIRPAPSDNLPLVDLIEHPDPIFDPKEKDLNETLLRSLLGGHYDPGFMATSPPEDRPGGGGGAAGGAEDLAELDQLLRQRPSGAMPSEIKGLEFSEGLAQGKKQRLSKKLRRKLQMWLWSQTFCPVLYAWNDLGSRFWPRYVKVGSCFSKRSCSVPEGMVCKPSKSVHLTVLRWRCQRRGGQRCGWIPIQYPIISECKCSC
With B2, in the assay with Wnt-signaling genes (Noggin concomitantly added with BMP4 on day 4), the “upregulation of Wnt expression” value is given as “upregulation of Wnt expression was suppressed”.

The record behind these values is patent publication US20260275280A1, “DIRECTED DIFFERENTIATION PROTOCOLS TO DERIVE BONE FIDE SPINAL SENSORY INTERNEURONS” (THE REGENTS OF THE UNIVERSITY OF CALIFORNIA, priority 2022, published 2026).
